Earlier results on 1 compound are cited in US6479045B2, “Vaginal pH buffering for preventing miscarriage and premature labor, by treating or preventing bacterial vaginosis” (Columbia Laboratories, Inc., priority 1999, dated 2002).

The series concerns Bacterial Vaginosis. The conditions noted are these: within one month.

For the compound `Cc1ncc([N+](=O)[O-])n1CCO` [metronidazole], the cure rate result is reported as “approximately 70%”.
